Patent publication US7060677B1, “Antimicrobial activity of the first cationic cluster of human lactoferrin” (priority 1999, dated 2006)
Peptide text beside a SMILES is read from it.

How the values were obtained:
[1] = system: the various bacteria (L. monocytogenes, antibiotic resistant S. aureus, K. pneumoniae, E. coli); test: Assay for antibacterial activity, statements on the various bacteria together; format: cell-based; settings: FIGS. 2A–2D: 7 μM peptide, 1 h at 37° C., NaPB-TSB
Description: Listeria monocytogenes strain EGD. Klebsiella pneumoniae (43816), and Escherichia coli O54 were purchased from the American Type Culture Collection (Rockville, Md.). Antibiotic resistant S. aureus, K. pneumoniae and E. coli were cultured overnight in nutrient broth (Oxoid, Basingstoke, UK) at 37° C., diluted in tryptase soya broth (TSB, Oxoid) and cultured for an additional 2 h in a shaking waterbath at 37° C. L. monocytogenes was cultured overnight in brain heart infusion broth (BHI, Oxoid) at 37° C. diluted and cultured for an additional 2 h in a shaking waterbath at 37° C.
In short, bacteria were washed with phosphate-buffered saline (PBS) (pH 7.4) and diluted to a concentration of approximately 2×10^6 CFU/ml of phosphate-buffered saline (pH 6.0) supplemented with 0.1% (v/v) Tween-20 (hereafter designated as PBS-Tw). […] At various time intervals (range 0–4 h) after incubation at 37° C. the number of viable bacteria was determined microbiologically. As negative controls, bovine serum albumin (BSA; Sigma) or no peptide were included.

[2] = Pharmacology of 99mTc-labeled hLF and peptides by scintigraphy in infected mice
Description: Lactoferrins and related peptides were labeled with ^99mTechnetium (^99mTc) as described (22, 23). Briefly, 10 μl of a peptide solution (1 mg/ml of HAc) was added to 2 μl of an aseptic solution of 0.5 mg of stannous pyrophosphate/ml (Dept. of Clinical Pharmacy and Toxicology. Leiden University Medical Center (LUMC). Leiden. The Netherlands). Immediately thereafter, 4 μl of a solution of 10 mg of KBH4 (crystalline. Sigma) per ml of 0.1 M NaOH was added. After addition of 0.1 ml of ^99mTc-sodium pertechnetate solution (200 MBq/ml. Mallinckrodt Medical BV, Petten, The Netherlands), the mixture was gently stirred at ambient temperature for 30 min and then was ready for use. Quality control of the labeling was performed by RP-HPLC analysis using a Sep-Pak C18 cartridge (Waters, Milford, Mass.) in 20 ml of 0.01 M HAc. After rinsing with 20 ml of 0.01 M HAc, proteins and peptides were eluted with 2 ml of methanol (Sigma).
The mice were placed in supine position on a planar gamma camera (Toshiba GCA 7100/UI. Tokyo, Japan) with both hind legs spread out and fixed with surgical tape. Continuous whole body acquisitions of the mice of each 60 s during the first hour after injection of the tracer were made with the gamma camera, equipped with a low-energy general purpose parallel-hole collimator. […] The energy peak was set at 140 keV with a window of 20%.
(§1) On the scintigrams, anatomically adjusted regions of interest (ROI) were drawn over the various organs and both thighs providing data about clearance of ^99mTc-peptides and accumulation at the site of infection. […] The amount of radioactivity in the heart was corrected for decay and expressed as a percentage of injected dose (% ID).

bacterial infection = test: Imaging microbial infections with 99mTc-labeled hLF and peptides; settings: as described in Example VI
Text: The mice were placed in supine position on a planar gamma camera (Toshiba GCA 7100/UI. Tokyo, Japan) with both hind legs spread out and fixed with surgical tape. Continuous whole body acquisitions of the mice of each 60 s during the first hour after injection of the tracer were made with the gamma camera, equipped with a low-energy general purpose parallel-hole collimator. The camera was connected to a computer (GMS 5500 UI, Toshiba) and high-resolution images of the animals were stored as a 256×256 matrix. The energy peak was set at 140 keV with a window of 20%.
as §1

## hLF(6–11): synthetic fragment of hLF(1–11): residues 6–11 of hLF (VQWCAV; UniProt P02788 25-30, looked up, fragment)
[1]
  Bactericidal activity of synthetic peptides against the various bacteria (in words): ineffective

## CSCC[C@H](NC(=O)[C@H](CC(N)=O)NC(=O)[C@H](CCCNC(=N)N)NC(=O)[C@H](CCC(N)=O)NC(=O)[C@H](Cc1c[nH]c2ccccc12)NC(=O)[C@H](CCC(N)=O)NC(=O)[C@@H](N)Cc1ccccc1)C(=O)N[C@@H](CCCNC(=N)N)C(=O)N[C@@H](CCCCN)C(=O)N[C@H](C(=O)N[C@@H](CCCNC(=N)N)C(=O)O)C(C)C [hLF(21–31), reference compound] (H-FQWQRNMRKVR-OH; N-terminus and C-terminus assumed)
[2]; Swiss, mouse, in vivo
  mean t1/2 of removal from the circulation: ~2 min

## hLF(5–11): synthetic fragment of hLF(1–11): residues 5–11 of hLF (SVQWCAV; UniProt P02788 24-30, looked up, fragment)
[1]
  Bactericidal activity of synthetic peptides against the various bacteria (in words): ineffective

## CC(C)[C@H](NC(=O)[C@H](CO)NC(=O)[C@H](CCCNC(=N)N)NC(=O)[C@H](CCCNC(=N)N)NC(=O)[C@H](CCCNC(=N)N)NC(=O)[C@@H](N)CCCNC(=N)N)C(=O)N[C@@H](CCC(N)=O)C(=O)N[C@@H](Cc1c[nH]c2ccccc12)C(=O)N[C@@H](CS)C(=O)N[C@@H](C)C(=O)O [hLF(2–11)] (H-RRRRSVQWCA-OH; N-terminus and C-terminus assumed)
Bacterial infection
  Accumulation at the site of infection (in words): rapidly accumulate at the site of infection

## CC(C)[C@H](NC(=O)[C@H](CO)NC(=O)[C@H](CCCNC(=N)N)NC(=O)[C@@H](N)CCCNC(=N)N)C(=O)N[C@@H](CCC(N)=O)C(=O)N[C@@H](Cc1c[nH]c2ccccc12)C(=O)N[C@@H](CS)C(=O)N[C@@H](C)C(=O)O [hLF(4–11)] (H-RRSVQWCA-OH; N-terminus and C-terminus assumed)
[2]; Swiss, mouse, in vivo
  mean t1/2 of removal from the circulation: approximately 1 min

## CC(C)[C@H](NC(=O)[C@H](CO)NC(=O)[C@H](CCCNC(=N)N)NC(=O)[C@H](CCCNC(=N)N)NC(=O)[C@H](CCCNC(=N)N)NC(=O)[C@H](CCCNC(=N)N)NC(=O)CN)C(=O)N[C@@H](CCC(N)=O)C(=O)N[C@@H](Cc1c[nH]c2ccccc12)C(=O)N[C@@H](CS)C(=O)N[C@@H](C)C(=O)O [hLF(1–11)] (H-GRRRRSVQWCA-OH; N-terminus and C-terminus assumed)
[2]; 99mTc-labeled, S. aureus infected mice, n=3, radioactivity over the heart in first hour
  mean t1/2 of removal from the circulation: ~9 min
Bacterial infection
  Accumulation at the site of infection (in words): rapidly accumulate at the site of infection

## CC(C)[C@H](NC(=O)[C@H](CO)NC(=O)[C@H](CCCNC(=N)N)NC(=O)[C@H](CCCNC(=N)N)NC(=O)[C@@H](N)CCCNC(=N)N)C(=O)N[C@@H](CCC(N)=O)C(=O)N[C@@H](Cc1c[nH]c2ccccc12)C(=O)N[C@@H](CS)C(=O)N[C@@H](C)C(=O)O [hLF(3–11)] (H-RRRSVQWCA-OH; N-terminus and C-terminus assumed)
Bacterial infection
  Accumulation at the site of infection (in words): rapidly accumulate at the site of infection
